From ChEMBL document CHEMBL3621049, “Imidazole derivatives show anticancer potential by inducing apoptosis and cellular senescence” (2014)
Activity calls are given as the source filed them.

Assays:
Assay type in all cases: functional, cell-based
CCRF-CEM = assay: Growth inhibition of human CCRF-CEM cells at 10 uM by sulforhodamine B assay
HL-60(TB) = assay: Growth inhibition of human HL-60(TB) cells at 10 uM by sulforhodamine B assay
K562 = assay: Growth inhibition of human K562 cells at 10 uM by sulforhodamine B assay
MOLT-4 = assay: Growth inhibition of human MOLT4 cells at 10 uM by sulforhodamine B assay
RPMI-8226 = assay: Growth inhibition of human RPMI8226 cells at 10 uM by sulforhodamine B assay
SR = assay: Growth inhibition of human SR cells at 10 uM by sulforhodamine B assay
A549 = assay: Growth inhibition of human A549/ATCC cells at 10 uM by sulforhodamine B assay
HOP-62 = assay: Growth inhibition of human HOP62 cells at 10 uM by sulforhodamine B assay
NCI-H226 = assay: Growth inhibition of human NCI-H226 cells at 10 uM by sulforhodamine B assay
NCI-H23 = assay: Growth inhibition of human NCI-H23 cells at 10 uM by sulforhodamine B assay
NCI-H322M = assay: Growth inhibition of human NCI-H322M cells at 10 uM by sulforhodamine B assay
NCI-H460 = assay: Growth inhibition of human NCI-H460 cells at 10 uM by sulforhodamine B assay
NCI-H522 = assay: Growth inhibition of human NCI-H522 cells at 10 uM by sulforhodamine B assay
COLO 205 = assay: Growth inhibition of human COLO205 cells at 10 uM by sulforhodamine B assay
HCT-116 = assay: Growth inhibition of human HCT116 cells at 10 uM by sulforhodamine B assay
HCT-15 = assay: Growth inhibition of human HCT15 cells at 10 uM by sulforhodamine B assay
HT-29 = assay: Growth inhibition of human HT-29 cells at 10 uM by sulforhodamine B assay
KM12 = assay: Growth inhibition of human KM12 cells at 10 uM by sulforhodamine B assay
SW-620 = assay: Growth inhibition of human SW620 cells at 10 uM by sulforhodamine B assay
SF-268 = assay: Growth inhibition of human SF268 cells at 10 uM by sulforhodamine B assay
SF-295 = assay: Growth inhibition of human SF295 cells at 10 uM by sulforhodamine B assay
SF-539 = assay: Growth inhibition of human SF539 cells at 10 uM by sulforhodamine B assay
SNB-19 = assay: Growth inhibition of human SNB19 cells at 10 uM by sulforhodamine B assay
SNB-75 = assay: Growth inhibition of human SNB75 cells at 10 uM by sulforhodamine B assay
U-251 = assay: Growth inhibition of human U251 cells at 10 uM by sulforhodamine B assay
LOX IMVI = assay: Growth inhibition of human LOXIMVI cells at 10 uM by sulforhodamine B assay
M14 = assay: Growth inhibition of human M14 cells at 10 uM by sulforhodamine B assay
MDA-MB-435 = assay: Growth inhibition of human MDA-MB-435 cells at 10 uM by sulforhodamine B assay
SK-MEL-2 = assay: Growth inhibition of human SK-MEL-2 cells at 10 uM by sulforhodamine B assay
SK-MEL-28 = assay: Growth inhibition of human SK-MEL-28 cells at 10 uM by sulforhodamine B assay
SK-MEL-5 = assay: Growth inhibition of human SK-MEL-5 cells at 10 uM by sulforhodamine B assay
UACC-257 = assay: Growth inhibition of human UACC257 cells at 10 uM by sulforhodamine B assay
IGROV-1 = assay: Growth inhibition of human IGROV1 cells at 10 uM by sulforhodamine B assay
OVCAR-3 = assay: Growth inhibition of human OVCAR3 cells at 10 uM by sulforhodamine B assay
OVCAR-4 = assay: Growth inhibition of human OVCAR4 cells at 10 uM by sulforhodamine B assay
OVCAR-5 = assay: Growth inhibition of human OVCAR5 cells at 10 uM by sulforhodamine B assay
OVCAR-8 = assay: Growth inhibition of human OVCAR8 cells at 10 uM by sulforhodamine B assay
NCI/ADR-RES = assay: Growth inhibition of human NCI/ADR-RES cells at 10 uM by sulforhodamine B assay
SK-OV-3 = assay: Growth inhibition of human SKOV3 cells at 10 uM by sulforhodamine B assay
786-0 = assay: Growth inhibition of human 786-0 cells at 10 uM by sulforhodamine B assay
A498 = assay: Growth inhibition of human A498 cells at 10 uM by sulforhodamine B assay
ACHN = assay: Growth inhibition of human ACHN cells at 10 uM by sulforhodamine B assay
CAKI-1 = assay: Growth inhibition of human Caki1 cells at 10 uM by sulforhodamine B assay
SN12C = assay: Growth inhibition of human SN12C cells at 10 uM by sulforhodamine B assay
UO-31 = assay: Growth inhibition of human UO31 cells at 10 uM by sulforhodamine B assay
PC-3 = assay: Growth inhibition of human PC3 cells at 10 uM by sulforhodamine B assay
DU-145 = assay: Growth inhibition of human DU145 cells at 10 uM by sulforhodamine B assay
MCF7 = assay: Growth inhibition of human MCF7 cells at 10 uM by sulforhodamine B assay
MDA-MB-231 = assay: Growth inhibition of human MDA-MB-231 cells at 10 uM by sulforhodamine B assay
Hs-578T = assay: Growth inhibition of human Hs 578T cells at 10 uM by sulforhodamine B assay
BT-549 = assay: Growth inhibition of human BT549 cells at 10 uM by sulforhodamine B assay
T47D = assay: Growth inhibition of human T47D cells at 10 uM by sulforhodamine B assay
MDA-MB-468 = assay: Growth inhibition of human MDA-MB-468 cells at 10 uM by sulforhodamine B assay
TK-10 = assay: Growth inhibition of human TK10 cells at 10 uM by sulforhodamine B assay
UACC-62 = assay: Growth inhibition of human UACC62 cells at 10 uM by sulforhodamine B assay
HOP-92 = assay: Growth inhibition of human HOP92 cells at 10 uM by sulforhodamine B assay
Malme-3M = assay: Growth inhibition of human MALME-3M cells at 10 uM by sulforhodamine B assay
HCC 2998 = assay: Growth inhibition of human HCC2998 cells at 10 uM by sulforhodamine B assay
RXF 393 = assay: Growth inhibition of human RXF393 cells at 10 uM by sulforhodamine B assay

Measured: growth inhibition (GI)

COc1cc(-c2nc(-c3ccccc3)c(-c3ccccc3)[nH]2)ccc1OC1CCCC1
active: all assays above
